Literature values, collected in US12377031B2, “Cosmetic compositions comprising 4-hydroxyacetophenone” (L'OREAL, priority 2020, dated 2025).

What does the source list for `CC(=O)c1ccc(O)cc1` [4-hydroxyacetophenone, 4-Hydroxyacetophenone]?
heating temperature required to solubilize into aqueous systems: ≥ 60 °C; solubility in water: limited solubility
